In patent US20240192237A1 (curantis UG, priority 2021, published 2024):

Experiments:
[1] = tested on: patients with schizophrenia; assay: PANSS assessment in clinical trials CBD-CT1 and CBD-PT; assay type: in vivo; conditions: for PANSS Positive Score: baseline 22.9 ± 4.3; for PANSS Negative Score: baseline 22.5 ± 6.0; for PANSS General Score: baseline 45.0 ± 8.2; for PANSS Total Score: baseline 90.4 ± 14.1
Source text: The Ethics Committee of the Faculty of Medicine of University of Cologne approved the clinical trial with application number 00-074 on Aug. 6, 2000.
All randomized patients complied with all inclusion and exclusion criteria: age between 18 and 50, male and female, persisting inpatient hospitalization, specific DSM-IV diagnoses, initial Brief Psychiatric Rating Scale (BPRS) score≥36, understanding of the study objectives and the course of the study, legal capacity, no pregnancy or lactation phase, reliable contraception.
CBD was administered as an oral dose in a capsule formulation. The dose was increased during the first week from 200 mg/d to 800 mg/d (4×200 mg) and remained at this level for the rest of the study period. Due to serious unwanted effects, the dose could be reduced irreversibly to 600 mg/d starting with day 15. […] Dose applications, blood sampling, and assessment of PANSS followed the time schedule presented below. Additional treatment with 7.5 mg lorazepam per day during the whole study period was permitted.
On 28 Jul. 2005 this clinical trial with application number 04-153 was approved by the Ethics Committee of the Faculty of Medicine of University of Cologne.
Eighteen patients with a diagnosis of schizophrenia or schizophreniform disorder should be included in this trial per protocol. Because dropouts had to be replaced by a new patient a total number of 29 patients was randomized from February 2006 to June 2008. All randomized patients complied with all inclusion and exclusion criteria: age between 18 and 65, male and female, specific DSM-IV diagnoses, initial BPRS score≥36, no pregnancy or lactation phase, reliable contraception, no lack of accountability, no other relevant interferences, no treatment with depot-antipsychotics during the last three months, no severe internal or neurological illness, no QTc prolongation, no acute suicidality nor endangerment of others by the patient. […] Treatment lasted four weeks: the first period with two weeks of CBD or placebo treatment was followed by a second period with a two-week treatment of placebo or CBD, respectively. There was no washout period between the two treatments. […] The dose could be reduced irreversibly to 400 mg/d in case of serious unwanted effects. […] The PANSS was applied at baseline and day 14 and 28. Dose applications, blood sampling, and assessment of PANSS followed the time schedule presented below. Additional treatment with 5.0 mg lorazepam per day during the whole study period was permitted.
The Positive and Negative Syndrome Scale (PANSS) is a psychopathological scale and was developed to assess the symptom severity in patients with schizophrenia. It was first described by Kay et al. in 1987 (Kay S R, Fiszbein A, Opler L A. “The positive and negative syndrome scale (PANSS) for schizophrenia”. Schizophrenia bulletin. 1987; 13(2):261-276.) and includes 30 questions which are a combination of 18 items of the BPRS and 12 items of the Psychopathology Rating Schedule ([…]) (see Leucht S, Kane J M, Kissling W, Hamann J, Etschel E, Engel R R. “What does the PANSS mean?” Schizophrenia research. 2005; 79(2-3):231-238.) All questions are rated on a 7-point scale from 1=absence of symptoms to 7=extremely distinct symptoms. Therefore, the PANSS total score (sum score of all 30 items) can range from 30 to 210. Here applies: the lower the PANSS score the better/healthier is the patient.
The positive scale contains delusion, disorganized thoughts, hallucination, excitement, grandiosity, suspiciousness/persecution, and animosity. Blunted affect, emotional withdrawal, poor rapport, passive/apathetic social withdrawal, difficulty in abstract thinking, stereotyped thinking, lack of spontaneity, and flow of conversation are part of the negative scale. […]

[2] = tested on: patients with schizophrenia; assay: Estimated correlation between CBD plasma concentration and percentage change of PANSS score at day 14; assay type: in vivo; conditions: for Estimated CBD plasma concentration, PANSS_N, average / Estimated CBD plasma concentration, PANSS_P, average / Estimated CBD plasma concentration, PANSS_T, average / Estimated CBD plasma concentration, PANSS_G, average: two weeks after commencement
Source text: In general, it is expected that a percentage change of 50% of the PANSS score(s) vis-à-vis the baseline score after four to six weeks of treatment indicates a significant improvement of the PANSS score(s) (see Correll C. U., “Quantifying clinical relevance in the treatment of schizophrenia, Clinical Therapeutics”, Vol. 33, Number 12, 2011, B16-B39).
Since the PANSS score(s) cover symptoms experienced or observed during the preceding 7 days, the minimum required observation period is one week. To avoid an overlap to the observation of initial symptoms, a treatment period of 2 weeks is considered a minimum reliable period. Therefore, we analyzed the treatment effect after 2 weeks of treatment. Due to the analyzed shortened treatment period a percentage change of 25% of the PANSS score(s) vis-à-vis the baseline score indicates a significant improvement of the PANSS score(s).

## C=C(C)[C@@H]1CCC(C)=C[C@H]1c1c(O)cc(CCCCC)cc1O [CBD, cannabidiol]
[1]; Day 14, mean, SD 4.5, N 36
  PANSS Positive Score: 18.9
[1]; Day 14, mean, SD 5.6, N 36
  PANSS Negative Score: 19.0
[1]; Day 14, mean, SD 9.6, N 36
  PANSS General Score: 38.9
[1]; Day 14, mean, SD 17.0, N 36 (CT1 17|PT 19), oral CBD capsules 800 mg/d (CT1) or 600 mg/d (PT)
  PANSS Total Score: 76.9
[1]; Day 28, mean, SD 5.4, N 24
  PANSS Positive Score: 16.9
[1]; Day 28, mean, SD 6.2, N 24
  PANSS Negative Score: 16.1
[1]; Day 28, mean, SD 13.1, N 24
  PANSS General Score: 35.9
[1]; Day 28, mean, SD 23.2, N 24 (CT1 14|PT 10)
  PANSS Total Score: 68.9
[2]; PANSS delta 10% vs baseline, range (12.9; 28.9)
  Estimated CBD plasma concentration, PANSS_N, average: 17.8 µg/L
[2]; PANSS delta 10% vs baseline, range (13.0; 35.7)
  Estimated CBD plasma concentration, PANSS_P, average: 19.1 µg/L
[2]; PANSS delta 10% vs baseline, range (13.4; 25.5)
  Estimated CBD plasma concentration, PANSS_T, average: 17.5 µg/L
[2]; PANSS delta 20% vs baseline, range (25.7; 57.7)
  Estimated CBD plasma concentration, PANSS_N, average: 35.6 µg/L
[2]; PANSS delta 20% vs baseline, range (26.0; 71.4)
  Estimated CBD plasma concentration, PANSS_P, average: 38.2 µg/L
[2]; PANSS delta 20% vs baseline, range (26.6; 49.2)
  Estimated CBD plasma concentration, PANSS_G, average: 34.5 µg/L
[2]; PANSS delta 20% vs baseline, range (26.7; 50.9)
  Estimated CBD plasma concentration, PANSS_T, average: 35.0 µg/L
[2]; PANSS delta 25% vs baseline, range (32.2; 72.1)
  Estimated CBD plasma concentration, PANSS_N, average: 44.5 µg/L
[2]; PANSS delta 25% vs baseline, range (32.5; 89.3)
  Estimated CBD plasma concentration, PANSS_P, average: 47.7 µg/L
[2]; PANSS delta 25% vs baseline, range (33.2; 61.5)
  Estimated CBD plasma concentration, PANSS_G, average: 43.1 µg/L
[2]; PANSS delta 25% vs baseline, range (33.4; 63.7)
  Estimated CBD plasma concentration, PANSS_T, average: 43.8 µg/L
[2]; PANSS delta 30% vs baseline, range (38.6; 86.6)
  Estimated CBD plasma concentration, PANSS_N, average: 53.4 µg/L
[2]; PANSS delta 30% vs baseline, range (39.1; 107.1)
  Estimated CBD plasma concentration, PANSS_P, average: 57.2 µg/L
[2]; PANSS delta 30% vs baseline, range (39.8; 73.8)
  Estimated CBD plasma concentration, PANSS_G, average: 51.8 µg/L
[2]; PANSS delta 30% vs baseline, range (40.1; 76.4)
  Estimated CBD plasma concentration, PANSS_T, average: 52.6 µg/L
[2]; PANSS delta 40% vs baseline, range (51.5; 115.4)
  Estimated CBD plasma concentration, PANSS_N, average: 71.2 µg/L
[2]; PANSS delta 40% vs baseline, range (52.1; 142.8)
  Estimated CBD plasma concentration, PANSS_P, average: 76.3 µg/L
[2]; PANSS delta 40% vs baseline, range (53.1; 98.4)
  Estimated CBD plasma concentration, PANSS_G, average: 69.0 µg/L
[2]; PANSS delta 40% vs baseline, range (53.4; 101.9)
  Estimated CBD plasma concentration, PANSS_T, average: 70.1 µg/L
[2]; PANSS delta 50% vs baseline, range (64.3; 144.3)
  Estimated CBD plasma concentration, PANSS_N, average: 89.0 µg/L
[2]; PANSS delta 50% vs baseline, range (65.1; 178.5)
  Estimated CBD plasma concentration, PANSS_P, average: 95.4 µg/L
[2]; PANSS delta 50% vs baseline, range (66.4; 123.0)
  Estimated CBD plasma concentration, PANSS_G, average: 86.3 µg/L
[2]; PANSS delta 50% vs baseline, range (66.8; 127.3)
  Estimated CBD plasma concentration, PANSS_T, average: 87.6 µg/L
[2]; PANSS delta 60% vs baseline, range (78.1; 214.2)
  Estimated CBD plasma concentration, PANSS_P, average: 114.5 µg/L
[2]; PANSS delta 60% vs baseline, range (79.7; 147.6)
  Estimated CBD plasma concentration, PANSS_G, average: 103.5 µg/L
[2]; PANSS delta 60% vs baseline, range (80.1; 152.8)
  Estimated CBD plasma concentration, PANSS_T, average: 105.1 µg/L
[2]; PANSS delta 70% vs baseline, range (90.1; 202.0)
  Estimated CBD plasma concentration, PANSS_N, average: 124.6 µg/L
[2]; PANSS delta 70% vs baseline, range (91.1; 249.9)
  Estimated CBD plasma concentration, PANSS_P, average: 133.6 µg/L
[2]; PANSS delta 70% vs baseline, range (93.0; 172.2)
  Estimated CBD plasma concentration, PANSS_G, average: 120.8 µg/L
[2]; PANSS delta 70% vs baseline, range (93.5; 178.3)
  Estimated CBD plasma concentration, PANSS_T, average: 122.6 µg/L
[2]; PANSS delta 75% vs baseline, range (96.5; 216.4)
  Estimated CBD plasma concentration, PANSS_N, average: 133.5 µg/L
[2]; PANSS delta 75% vs baseline, range (97.6; 267.8)
  Estimated CBD plasma concentration, PANSS_P, average: 143.1 µg/L
[2]; PANSS delta 75% vs baseline, range (99.6; 184.5)
  Estimated CBD plasma concentration, PANSS_G, average: 129.4 µg/L
[2]; PANSS delta 75% vs baseline, range (100.1; 191.0)
  Estimated CBD plasma concentration, PANSS_T, average: 131.4 µg/L
[2]; PANSS delta 80% vs baseline, range (102.9; 230.8)
  Estimated CBD plasma concentration, PANSS_N, average: 142.4 µg/L
[2]; PANSS delta 80% vs baseline, range (104.1; 285.6)
  Estimated CBD plasma concentration, PANSS_P, average: 152.6 µg/L
[2]; PANSS delta 80% vs baseline, range (106.3; 196.8)
  Estimated CBD plasma concentration, PANSS_G, average: 138.0 µg/L
[2]; PANSS delta 80% vs baseline, range ([…]; 203.7)
  Estimated CBD plasma concentration, PANSS_T, average: 140.2 µg/L
[2]; PANSS delta 90% vs baseline, range (115.8; 259.7)
  Estimated CBD plasma concentration, PANSS_N, average: 160.2 µg/L
[2]; PANSS delta 90% vs baseline, range (117.2; 321.3)
  Estimated CBD plasma concentration, PANSS_P, average: 171.7 µg/L
[2]; PANSS delta 90% vs baseline, range (119.5; 221.4)
  Estimated CBD plasma concentration, PANSS_G, average: 155.3 µg/L
[2]; PANSS delta 90% vs baseline, range (120.2; 229.2)
  Estimated CBD plasma concentration, PANSS_T, average: 157.7 µg/L
[2]; PANSS delta 100% vs baseline, range (128.7; 288.5)
  Estimated CBD plasma concentration, PANSS_N, average: 178.0 µg/L
[2]; PANSS delta 100% vs baseline, range (130.2; 357.0)
  Estimated CBD plasma concentration, PANSS_P, average: 190.8 µg/L
[2]; PANSS delta 100% vs baseline, range (132.8; 246.0)
  Estimated CBD plasma concentration, PANSS_G, average: 172.5 µg/L
[2]; PANSS delta 100% vs baseline, range (133.5; 254.6)
  Estimated CBD plasma concentration, PANSS_T, average: 175.2 µg/L
[2]; after 2 weeks of treatment
  CBD plasma concentration that results in the required percentage change (25%) of the PANSS score(s): at least 25 μg/l
